Peptide text beside a SMILES is read from it. * marks the point of attachment. Bz = O=C(c1ccccc1)*

The test has as its target Angiotensin-converting enzyme (Homo sapiens, UniProt P12821+Q9BYF1). In words: Inhibitory activity against angiotensin converting enzyme. The class given is protein assay.

Usually IC50 stands for the concentration needed to halve the response being measured. The low end stands for greater potency in that assay, the high end for weaker potency in that assay. Molecule `O=C(N[C@@H](Cc1ccccc1)C(=O)NCC(=O)N1CCC[C@H]1C(=O)O)c1ccccc1` (Bz-Phe-Gly-Pro-OH) returned an IC50 of 9.4 µM.

Source of the values: ChEMBL document CHEMBL1151077, “Peptide mimics of glycylproline as inhibitors of prolidase” (Bioorg Med Chem Lett, 1995).
